Laboratory results taken from US10584146B2, “Heme peptide materials for anti-inflammatory regenerative nanobiomedicine” (UCHICAGO ARGONNE, LLC, priority 2016, dated 2020).
“Also recorded” adds a separate entry of the source. The star is where a group is joined. Palmitoyl = CCCCCCCCCCCCCCCC(=O)*

What was measured:
[1] = Peroxidase activity assay (TMB oxidation with H2O2); format: biochemical; settings: for peroxidase activity over extended times: TMB ~300 μM, H2O2 ~300 μM, Peptide 10 μM, Heme 1 μM, HEPES pH 7; for peroxidase activity (oxidation of TMB): assemblies prepared in pH 7 HEPES (micelles), assay at pH 7, peptide 10 μM, heme 1 μM
Experimental: Peroxidase Activity Assay. Peroxidase activity was monitored using a Varian Cary 50 spectrophotometer and the kinetics software package. 652 nm was the chosen wavelength based on its characterization in the literature (extinction coefficient: 39,000 M−1 cm-1). In a solution of HEPES buffer, pH 7 (50 mM HEPES 100 mM NaCl), a commercially available cocktail of 3,3′,5,5′-Tetramethylbenzidine (TMB) and H2O2 (both ˜3 mM, purchased from Sigma-Aldrich) was diluted 1:10. This was monitored for 1 minute to detect any changes in the background then protein was added (prepared as above at 500 μM peptide and 50 μM heme) to a final concentration of 10 μM (1 μM Heme). The reaction was allowed to run for 15 minutes to assure completion. In the case of Michaelis-Menten analyses two stock solutions of TMB (10 mg/mL, 41.6 mM in DMSO) and peroxide (52.8 mM diluted in H2O, H2O2 stock concentration standardized by the method of Klassen et. al.) (57) were made so the concentrations could be varied de-pending on the experiment. When varying peroxide concentration TMB was at a concentration of 300 μM. Michaelis-Menten curves were fit using Origin 9.1 software to the equation (v0=kCat[E]0[S]0/(KM+[S]0)). Catalytic efficiency values (kCat/KM) were determined by fitting the linear portion of those curves to the equation (v0=(kCat/KM)[E]0[S]0). Total amount of oxidized TMB was calcu-lated by integrating the absorbance at 652 nm (done with Origin 9.1 software), and dividing that value by the extinction coefficient.
Many natural and synthetic heme proteins display peroxidase activity, a natural reaction that catalyzes the oxidation of high potential substrates using hydrogen peroxide (H2O2). Here, we employed heme-peroxidase catalysis as a benchmark reaction to investigate how supramolecular morphology in PA-Heme assemblies can control catalytic reactivity. (53) We have chosen the established protocol where H2O2 activated by the XXHeme assemblies reacts with the colorless molecule 3,3′,5,5′-tetramethylbenzidine (TMB) to yield the oxidized blue diimine product and water. (54) All of these assays were carried out in pH 7 HEPES buffer. Peptide assemblies were prepared in either pH 7 HEPES or 10.5 NH4OH and then diluted 50 fold into the reaction mixture to maintain standard reaction conditions. […] The rates of these peptides are consistent with the Michaelis-Menten enzyme kinetics model (FIGS. 19C, 19D, and 21). […] Applicants show a clear and significant dependence of peroxidase activity dependent on supramolecular morphology. […] The micelle structures offer a more dynamic assembly that allows substrate to interact with the engineered heme active site.

[2] = Spectroelectrochemistry, midpoint potential; format: physicochemical
Experimental: Electrochemistry. The samples were placed in a spectroecltrochemical cell (1 mm quartz) equipped with a platinum mesh working electrode, platinum wire auxiliary electrode, and a Ag/AgCl reference electrode (Basi, Inc.). […] Each applied voltage setting was allowed to equilibrate for a minimum of 20 minutes prior to UV/visible spectral acquisition (Perkin Elmer, Lambda 950, UV/vis/NIR spectrophotometer). Midpoint potential analysis was achieved by fitting a standard Boltzmann curve to the obtained data (OriginPro 9.1).

[3] = Heme titration, stoichiometry and binding constant analysis (UV/visible)
Experimental: FIGS. 14A-14P depict stoichiometry and binding constant analysis of peptide titrations (0-1000 μM XX in 50 μM titrants) into heme solutions (50 μM) in Hepes buffer (right) or 10 mM NH4OH (left). UV/visible spectroscopy and plots of [Peptide]/[Heme] vs. absorption (λSoret). The solid lines represent the binding constant analysis and were obtained in Origin v9.1 by applying equation 1 (FIG. 15). The following values were fixed: M=5×10^−5 M, 1=0.1 cm. All other values were permitted to float for the first round of analysis. Once n was determined, a common integer was applied to each data set within the conditions employed, e.g. n=3 for HEPES and n=6 for 10 mM NH4OH. The vertical line at x=10 marks the samples that were analyzed further by UV/vis and EPR.
FIG. 15 is the equation employed for stoichiometry and binding constant analysis; the follow variables are used: Ao, initial absorption; ϵB, extinction of bound heme; ϵs, extinction coefficient contribution from scattering; x, ratio of peptide to heme; n, set stoichiometry of peptide to heme; Kd, dissociation (binding) constant M, molar concentration of heme; l, cuvette pathlength.
Sample Preparation. Each peptide (3-4 mg) was dissolved in nanopure water (Millipore A10) to obtain a 1 wt % solution, c16-AAL3K3-CO2H (SEQ ID NO: 9) (1 wt %, 8.9 mM), c16-AHL3K3-CO2H (SEQ ID NO: 3) (1 wt %, 8.4 mM), c16-HHL3K3-CO2H (SEQ ID NO: 4) (1 wt %, 7.9 mM) and c16-MHL3K3-CO2H (SEQ ID NO: 5) (1 wt %, 8.0 mM). Hemin (Porcine, Sigma-Aldrich) was dissolved in DMSO (Sigma Aldrich) to achieve a 10 mM stock solution. Note: He-min/DMSO stock solutions were always made to ensure that the final DMSO concentration in the sam-ple was less than 1% (v/v). Typically, 38 μL of a 1 wt % stock solution was dissolved in 260 μL of ei-ther HEPES (50 mM HEPES, 100 mM NaCl pH 7.0) or 10 mM NH4OH, pH 10.5 to yield a 1 mM sample. […] Titration experiments analyzed samples that contained 50 μM Heme in either Hepes buffer or 10 mM NH4OH. […]

Substance: c16-AAL3K3-CO2H (Palmitoyl-AALLLKKK-OH; also: heme) [AAHeme, control peptide amphiphile without heme coordination site; XXHeme denotes the holo state (coordinated heme)]
- peroxidase activity over extended times [1]: does not appear to have any activity
- peroxidase activity (oxidation of TMB) [1]: not reactive

Substance: c16-AHL3K3-CO2H (Palmitoyl-AHLLLKKK-OH; also: heme) [AHHeme, XXHeme denotes the holo state]
- midpoint potential (EM) vs. SHE ([2]; fibers, 10 mM NH4OH): −655 mV
- midpoint potential (EM) vs. SHE ([2]; micelles, HEPES): −315 mV
- heme binding affinity (Kd), in words ([3]; fibers, compared with micelles): binding affinity actually increases
- peroxidase activity over extended times [1]: most initial activity
- peroxidase activity (oxidation of TMB) [1]: varying degrees of peroxidase activity

Substance: c16-HHL3K3-CO2H (Palmitoyl-HHLLLKKK-OH; also: heme) [HHHeme, XXHeme denotes the holo state]
- midpoint potential (EM) vs. SHE ([2]; fibers, 10 mM NH4OH): −333 mV
- midpoint potential (EM) vs. SHE ([2]; micelles, HEPES): −270 mV
- heme binding affinity (Kd), in words ([3]; micelles): highest binding affinity
- peroxidase activity (oxidation of TMB) [1]: varying degrees of peroxidase activity; also recorded: low reactivity compared to the other peptides

Substance: c16-MHL3K3-CO2H (Palmitoyl-MHLLLKKK-OH; also: heme) [MHHeme, XXHeme denotes the holo state]
- midpoint potential (EM) vs. SHE ([2]; fibers, 10 mM NH4OH): −442 mV
- midpoint potential (EM) vs. SHE ([2]; micelles, HEPES): −312 mV
- heme binding affinity (Kd), in words ([3]; fibers, compared with micelles): decrease in heme binding affinity
- peroxidase activity over extended times [1]: most initial activity
- peroxidase activity (oxidation of TMB) [1]: varying degrees of peroxidase activity
- kCat, in words ([1]; micelles, pH 7): higher kCat, than HHHeme
